Reference: ChEMBL document CHEMBL3352713, “A new class of salicylic acid derivatives for inhibiting YopH of Yersinia pestis” (Bioorg Med Chem, 2014)

Legend:
[1] = Inhibition of Yersinia pestis YopH using […] as substrate by spectrophotometry
[2] = Selectivity for Yersinia pestis YopH over TCPTP (unknown origin) at 5 nM
[3] = Selectivity for Yersinia pestis YopH over CD45 (unknown origin) at 5 nM
[4] = Selectivity for Yersinia pestis YopH over HePTP (unknown origin) at 5 nM
[5] = Selectivity for Yersinia pestis YopH over Cdc25A (unknown origin) at 5 nM
[6] = Selectivity for Yersinia pestis YopH over VHR (unknown origin) at 5 nM
[7] = Selectivity for Yersinia pestis YopH over PTP1B (unknown origin) at 5 nM

O=C(CCCCNC(=O)c1cc(-c2ccc(O)c(C(=O)O)c2)cs1)Nc1nc2ccccc2s1
IC50 [1]: 39.5 µM

O=C(CCCCNC(=O)c1cc(-c2ccc(O)c(C(=O)O)c2)on1)Nc1ccc(N2CCOCC2)cc1
IC50 [1]: 63 µM

O=C(CCCCNC(=O)c1cc(-c2ccc(O)c(C(=O)O)c2)cs1)Nc1nc(-c2ccccc2)cs1
IC50 [1]: 44.2 µM

O=C(CCCCNC(=O)c1ccc(-c2ccc(O)c(C(=O)O)c2)s1)Nc1nc(-c2ccccc2)cs1
IC50 [1]: 11.1 µM

O=C(CCCCNC(=O)c1cc(-c2ccc(O)c(C(=O)O)c2)on1)Nc1nc(-c2ccccc2)cs1
IC50 [1]: 23 µM

O=C(CCCCNC(=O)c1ccc(-c2ccc(O)c(C(=O)O)c2)s1)NCc1ccccc1
IC50 [1]: > 200 µM

O=C(O)C1=CC(=C(c2ccc(O)c(C(=O)O)c2)c2ccc(O)c(C(=O)O)c2)C=CC1=O [AURINTRICARBOXYLIC ACID]
Selectivity ratio [2]: 6
Selectivity ratio [3]: 6
Ki [1]: 5 nM
Selectivity ratio [4]: 6
Selectivity ratio [5]: 6
Selectivity ratio [6]: 6
Selectivity ratio [7]: 6

O=C(CCCCNC(=O)c1ccc(-c2ccc(O)c(C(=O)O)c2)s1)Nc1ccc(N2CCOCC2)cc1
IC50 [1]: > 200 µM

O=C(CCNC(=O)c1ccc(-c2ccc(O)c(C(=O)O)c2)s1)Nc1nc(-c2ccccc2)cs1
IC50 [1]: > 50 µM

O=C(CCCCNC(=O)c1ccc(-c2ccc(O)c(C(=O)O)c2)s1)Nc1nc2ccccc2s1
IC50 [1]: > 20 µM
